How the values were obtained:
[1] = system: PC3 prostate cancer cells; experiment: Immunofluorescence microscopy to detect RAD51 and RPA foci in PC3 cells; format: cell-based, human
Method: (§1) FIGS. 6A-6B. […] FIG. 6A: Cells were grown on cover slips, incubated for 6 hours in media containing 60 μM RS-1. In the 8 Gy radiation control condition, cells were irradiated 6 hours before harvest. Cells were subsequently indirectly immunostained. […] FIG. 6B: Fifty randomly selected nuclei per treatment group were examined and discrete foci were quantified.
(§2) Some cancer cells that strongly overexpress RAD51 are known to develop spontaneous RAD51 nuclear complexes (Raderschall, et al., 2002). […] PC3 prostate cancer cells and normal primary human fibroblasts (MRC-5) were treated with RS-1 and examined by immunofluorescence microscopy. To determine whether RAD51-staining structures represented sites of DNA repair vs. non-damage-associated sites, nuclei were counterstained for RPA, which forms punctuate sub-nuclear foci specifically in response to DNA damage at sites that colocalize with damage-induced RAD51 foci (Golub, et al., 1998).
(§3) Cells were grown on coverslips and treated with RS-1 or radiation as indicated. They were subsequently fixed with 3% paraformaldahyde/3.4% sucrose, and permeabilized with a standard buffer (20 mM HEPES pH 7.4, 0.5% TritonX-100, 50 mM NaCl, 3 mM MgCl2, 300 mM sucrose). […] Images were recorded at a single representative focal plane using a CCD camera. For each experimental condition, 50 randomly selected nuclei were quantified using NIH Image software.

[2] = molecular target: T1, purified human RAD51 protein (Homo sapiens, UniProt Q06609); experiment: Measurement of RAD51 binding to DNA by fluorescence polarization; conditions: 75 nM RAD51, various concentrations of RS-1, 100 nM DNA substrate
T1 sequence (Q06609 1-339): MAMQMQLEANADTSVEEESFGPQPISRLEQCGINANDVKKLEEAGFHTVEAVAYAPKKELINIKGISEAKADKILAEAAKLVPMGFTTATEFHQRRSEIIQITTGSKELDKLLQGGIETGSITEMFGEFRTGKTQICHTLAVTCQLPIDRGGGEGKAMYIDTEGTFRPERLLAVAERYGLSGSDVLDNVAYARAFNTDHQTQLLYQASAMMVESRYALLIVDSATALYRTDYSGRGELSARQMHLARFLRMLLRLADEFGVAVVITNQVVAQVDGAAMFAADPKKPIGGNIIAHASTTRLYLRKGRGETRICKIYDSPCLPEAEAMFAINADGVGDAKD
Method: Various concentrations of RS-1 were incubated with purified hRAD51 protein and a fluorescently tagged DNA substrate, consisting of either a ssDNA oligonucleotide (DHD162-CD-CF) or a dsDNA double hairpin (DHD162). Binding of RAD51 to DNA was measured as a function of fluorescence polarization of the tag, as described in the methods section.
Experiments were performed as previously described with some modifications (Budke, et al., 2012). Briefly, 75 nM purified human RAD51 protein was incubated with various concentrations of RS-1 in FP reaction buffer at 37° C. for 40 minutes. FP reaction buffer consisted of 20 mM Hepes pH 7.5, 10 mM MgCl2, 0.25 μM BSA, 2% glycerol, 30 mM NaCl, 4% DMSO, 0.1 mM tris(2-carboxyethyl)phosphine (TCEP), and 2 mM ATP. Fluorescently tagged DNA substrate was then added to a final concentration of 100 nM (nucleotide concentration for ssDNA or base pair concentration for dsDNA) and incubated at 37° C. for another 40 minutes. DNA substrates consisted of either an Alexa Fluor 488-labeled oligo-dT 45-mer, a fluorescein-labeled ssDNA oligonucleotide (DHD162-CD-CF), or a fluorescein-labeled dsDNA double hairpin (DHD162) which were previously described (Budke, et al., 2013). Fluorescence polarization measurements were obtained as previously described (Budke, et al., 2012). […]

[3] = system: normal primary human fibroblasts (MRC-5); experiment: Immunofluorescence microscopy to detect RAD51 and RPA foci in MRC-5 cells; format: cell-based
Method: as §1, §2, §3

RAD51 [4] = molecular target: T2, RAD51 (Homo sapiens, UniProt Q06609); conditions: cited from earlier work
T2 sequence (Q06609 1-339): T1 sequence (Q06609 1-339)

HT1080 cells = experiment: Cell survival assay in HT1080 cells with doxycycline-repressible RAD51 transgene; format: cell-based, human; conditions: HT1080, RAD51 overexpression by doxycycline removal; 24 hours RS-1, 6 days drug-free
Method: HT1080 cells carrying a doxycycline-repressible RAD51 transgene were pre-treated with varying levels of doxycycline for 24 hours. […] In lower panel, cells were subsequently incubated for 24 hours in media containing varying concentrations of RS-1. Cells were then allowed to grow in drug-free media for an additional 6 days, and indicated doxycycline concentrations were maintained throughout the entire experiment. Average survival for each condition is normalized to the 0 μM RS-1 control of that condition.
(§4) Cells were plated into 96-well tissue culture plates at a density of 300 cells per well in the presence or absence of RS-1 for 24 hours at 37° C., 5% CO2. RS-1 was then removed, and cultures were allowed to grow for approximately one week to a 50-70% confluence. Average survival from six replicates was measured using CellGlo reagent (Promega), and error bars represent the standard error.
To confirm that RS-1 toxicity is directly related to RAD51 and translocases protein levels, these proteins were experimentally manipulated in cells. First, RAD51 was overexpressed in human fibrosarcoma HT1080 cells carrying a doxycycline-repressible RAD51 transgene.

RAD51 [5] = molecular target: T2, RAD51; conditions: cited from earlier work; remark: listed apart in the source
PC3 cells = experiment: Cell survival assay in PC3 cells (with or without siRNA knockdown); format: cell-based, human
Method: PC3 cells were treated with various concentrations of RAD51 siRNA for 48 hours. […] Following RNAi, cells were allowed to grow for 7 days and assayed for viability in the absence of additional treatment. FIG. 3B: Following RNAi, cells were incubated for 24 hours in media containing varying concentrations of RS-1. Cells were then allowed to grow in drug-free media for an additional 6 days. Average survival for each condition is normalized to the 0 μM RS-1 control of that condition.
PC3 cells were treated with siRNA against RAD54L, RAD54B, both, or a non-silencing (NS) control for 48 hours. Following RNAi, cells were subsequently incubated for 24 hours in media containing varying concentrations of RS-1. Cells were then allowed to grow in RS-1-free media for an additional 6 days. Average survival for each condition is normalized to the 0 μM RS-1 control of that condition.
as §4
The RAD51 siRNA and the All-Stars negative control siRNA (NS) were ordered from Qiagen. RAD54B siRNAs were ordered from Invitrogen (Stealth). The RAD54L siRNA cocktail was ordered from Santa Cruz (sc-36362). All siRNAs were transfected using RNAiMax as per manufacturer's instructions (Invitrogen). Briefly, 2.0×10^5 cells were plated in 6 well dishes containing siRNA complexes to achieve the desired final concentration of siRNAs. The RAD54B and RAD54L siRNAs consisted of a cocktail of three independent siRNAs. The concentration of siRNAs transfected were 25 nM for RAD54L and 50 nM RAD54B. Co-depletion of RAD54L and RAD54B was performed by transfecting cells simultaneously with both siRNAs. At 48 hours post transfection, cells were harvested for cell survival assays and western blotting as described.

PC3 tumors = experiment: PC3 xenograft tumor model in athymic nude mice
Method: FIG. 7. […] PC3 tumors were induced in the hind limbs of athymic nude mice. Mice were then randomized into two treatment groups. Starting on day 0, mice then received 5 daily intra-peritoneal injections with either RS-1 (110 mg/kg) or vehicle alone control. Median tumor volume is plotted, normalized to the starting tumor volume on day 0.
An in-vivo tumor model was used to further test the concept of RAD51 stimulation as a cancer treatment. Subcutaneous xenograft PC3 tumors were induced in the hind limbs of athymic nude mice, and the mice were subsequently treated with daily intra-peritoneal injections of RS-1 for five consecutive days. The daily dose administered to the mice was designed to yield an idealized concentration of 300 μM within the aqueous compartment of a mouse, based on an assumption of homogenous distribution across a 21 gm animal that is composed of 70% water.
Xenograft tumors were induced in the hind limbs of athymic nude mice by subcutaneous injection of 1×10^6 PC3 cells, and tumors were allowed to grow to an average volume of about 50 mm^3. Mice were then were randomized into treatment groups, each consisting of 7 mice. […] Tumor measurements were taken 3 times per week with a caliper and expressed as tumor volume, which was approximated from the product of width×length×height×0.5.

[6] = 110 mg/kg intra-peritoneal, 5 daily injections

O=C(Nc1ccc(Br)cc1)c1ccc(Br)c(S(=O)(=O)NCc2ccccc2)c1 [RS-1, 3-Benzylsulfamoyl-4-bromo-N-(4-bromo-phenyl)-benzamide]
nuclei with >10 RAD51 foci/nucleus ([1]; PC3, 60 μM RS-1, 6 hours, no DNA damage): 43% | cells with >10 RPA foci/nucleus ([1]; PC3, after RS-1 treatment): Neither cell type exhibited >10 RPA foci/nucleus in any cells | binding of RAD51 to ssDNA and dsDNA [2]: stimulates the binding of RAD51 to both ssDNA and dsDNA | nuclei with >10 RAD51 foci/nucleus ([3]; MRC-5, 60 μM RS-1, 6 hours): no MRCS nuclei exhibited >10 RAD51 foci/nucleus | cells with >10 RPA foci/nucleus ([3]; MRC-5, after RS-1 treatment): Neither cell type exhibited >10 RPA foci/nucleus in any cells | protection of RAD51 filaments from high salt (RAD51 [4]; buffers containing high salt concentration): protects these filaments from buffers containing high salt concentration | RAD51 filament formation (further study) (RAD51 [4]): enhances RAD51 filament formation | sensitivity to RS-1 of cells with the highest RAD51 expression levels (HT1080 cells): significantly more sensitive to RS-1 | DNA strand invasion activity of RAD51 (RAD51 [5]): capable of stimulating DNA strand invasion activity of RAD51 | effect of RAD51 depletion on RS-1 induced toxicity (PC3 cells; PC3, RAD51 siRNA 48 hours, then 24 hours RS-1): significant protection from RS-1 induced toxicity | LD90 (PC3 cells; PC3, relative to panel of cell lines): low LD90 | effect of RAD54B or RAD54L knockdown on RS-1 toxicity (PC3 cells; PC3, siRNA 48 hours, then 24 hours RS-1): significantly sensitized PC3 cells to RS-1 toxicity | anti-tumor response relative to vehicle-alone control (PC3 tumors; [6]): significant anti-tumor responses | toxic deaths (PC3 tumors; [6]): no toxic deaths observed | delay in tumor regrowth relative to vehicle-alone control (PC3 tumors; 110 mg/kg intra-peritoneal, 5 daily injections, remaining tumors): > 2 week | tumors that completely disappeared after treatment and never regrew (PC3 tumors; 110 mg/kg intra-peritoneal, 5 daily injections, two month observation, 3 of 7): 43% | transient weight loss (PC3 tumors; during the treatment week, regained post-treatment): about 10%
